Results published in patent US20050267166A1, “Continuous dosing regimen” (priority 2004, published 2005).

What was measured:
[1] = tested on: M5076 transplantable murine reticulum cell sarcoma; conditions: for antitumor activity in the M5076 model: in words; for ILS: comparator drugs, dose not given
[2] = tested on: C26 colon tumors; test: C26 colon tumors grown in the flank of CDF-1 mice; format: in vivo; conditions: comparator, regimen not given
[3] = tested on: NCI-H460 human non-small cell lung carcinoma; test: NCI-H460 xenograft model; format: in vivo; conditions: in words
Excerpt: NCI-H460 is a human non-small cell lung carcinoma derived cell line. It is MDR negative, has wild type p53, and contains an oncogenic K-ras mutation.

[4] = tested on: HCT-15 human colon carcinoma; test: HCT-15 human colon carcinoma xenografts; format: in vivo; conditions: in words
Excerpt: HCT-15 is a human colon carcinoma derived cell line. It is MDR positive, and expresses both mutant p53 and oncogenic K-ras. The HCT-15 cell line has one of the highest levels of mdr-1/P-glycoprotein expression of cells from the NCI tumor cell line panel.
Effect of Cytotoxic Agents on the Growth of HCT-15 Human Colon Carcinoma Xenografts

[5] = target: biotinylated bovine brain tubulin

Row | Structure (SMILES) | antitumor activity in the M5076 model [1] | efficacy against C26 colon tumors [2] | efficacy in the NCI-H460 xenograft model [3] | efficacy in HCT-15 xenografts [4] | ILS [1] [%] | Ki ([5]; competition of [3H]colchicine) [µM] | displacement of [3H]colchicine from the colchicine site of tubulin β-subunits ([5]; in words)
1 | O=P1(N(CCCl)CCCl)NCCCO1 (stereo not shown) [cyclophosphamide] | sensitive | – | – | – | – | – | –
2 | CC(=O)O[C@H]1C(=O)[C@@]2(C)[C@H]([C@H](OC(=O)c3ccccc3)[C@]3(O)C[C@H](OC(=O)[C@H](O)[C@@H](NC(=O)c4ccccc4)c4ccccc4)C(C)=C1C3(C)C)[C@]1(OC(C)=O)CO[C@@H]1C[C@@H]2O [paclitaxel, reference compound] | resistant | not efficacious | lacked activity | not efficacious | – | – | –
3 | CC[C@]1(O)C[C@H]2CN(CCc3c([nH]c4ccccc34)[C@@](C(=O)OC)(c3cc4c(cc3OC)N(C=O)[C@H]3[C@@](O)(C(=O)OC)[C@H](OC(C)=O)[C@]5(CC)C=CCN6CC[C@]43[C@@H]65)C2)C1 [vincristine, reference compound] | only marginally active | – | lacked activity | not efficacious | 17 | – | –
4 | CC[C@]1(O)C[C@@H]2CN(CCc3c([nH]c4ccccc34)[C@@](C(=O)OC)(c3cc4c(cc3OC)N(C)[C@H]3[C@@](O)(C(=O)OC)[C@H](OC(C)=O)[C@]5(CC)C=CCN6CC[C@]43[C@@H]65)C2)C1 [vinblastine] | – | – | – | – | – | > 100 | do not displace
5 | COc1cccc2c1C(=O)c1c(O)c3c(c(O)c1C2=O)C[C@@](O)(C(=O)CO)C[C@@H]3O[C@H]1C[C@H](N)[C@H](O)[C@H](C)O1 [doxorubicin] | only marginally active | – | – | – | 13 | – | –
